Assay results as given in patent publication EP4707277A1, “NOVEL HETEROCYCLIC AMINE DERIVATIVES AND PHARMACEUTICAL COMPOSITION COMPRISING SAME” (Daewoong Pharmaceutical Co., Ltd., priority 2023, dated 2024).
Like-named read-outs stand apart in the source and are kept apart here.

How the values were obtained:
BTK = molecular target: T1, BTK (Homo sapiens, UniProt Q06187); test: Inhibitory activity against BTK, ADP-Glo Kinase system (Promega); format: biochemical
T1 construct: purchased Signalchem B10-10H
T1 sequence (Q06187 whole entry): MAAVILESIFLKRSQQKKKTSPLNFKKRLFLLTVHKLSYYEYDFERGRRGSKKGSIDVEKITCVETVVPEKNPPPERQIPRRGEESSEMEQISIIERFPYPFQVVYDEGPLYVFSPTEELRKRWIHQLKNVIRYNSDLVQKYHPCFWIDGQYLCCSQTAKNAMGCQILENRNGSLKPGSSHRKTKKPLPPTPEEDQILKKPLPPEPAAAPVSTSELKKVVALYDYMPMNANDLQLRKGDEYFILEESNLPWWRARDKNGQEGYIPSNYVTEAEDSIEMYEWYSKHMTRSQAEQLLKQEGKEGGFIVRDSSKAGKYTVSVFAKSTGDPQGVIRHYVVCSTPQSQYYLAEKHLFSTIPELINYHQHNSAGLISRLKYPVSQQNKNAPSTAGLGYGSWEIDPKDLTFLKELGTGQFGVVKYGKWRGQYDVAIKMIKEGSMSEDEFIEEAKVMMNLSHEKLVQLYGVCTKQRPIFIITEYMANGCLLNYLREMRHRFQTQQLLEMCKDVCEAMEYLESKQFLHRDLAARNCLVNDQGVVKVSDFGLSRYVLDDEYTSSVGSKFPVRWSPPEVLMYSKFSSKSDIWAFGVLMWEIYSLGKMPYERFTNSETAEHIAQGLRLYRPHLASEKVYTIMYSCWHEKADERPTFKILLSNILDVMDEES
Protocol: (§1) Inhibitory activities against BTK and ITK were measured for the compounds prepared in the above Examples as follows.
(§2) The inhibitory activities against BTK and ITK were evaluated using 'ADP-Glo™ Kinase system' (Promega Corporation). In the case of this evaluation method, activation was measured by quantifying the amount of ADP produced during the kinase reaction, which was utilized to measure the inhibitory activities against BTK and ITK.
(§3) Specifically, the inhibitory activities against BTK and ITK were measured using BTK kinase (Signalchem, B10-10H), ITK kinase (Signalchem, I13-11G-10), and ADP-Glo kinase assay kit (Promega, V9102). Recombinant purified human BTK and ITK were diluted with 1 x kinase reaction buffer (40 mM Tris-Cl, pH 7.5, 20 mM MgCl2, 0.1 mg/mL BSA, 2 mM MnCl2 and 50 uM DTT) and added to a 96 well plate (ITK: final concentration of 4 ng per reaction/BTK: final concentration of 10 ng per reaction). The compounds prepared in the previous Examples were treated so as to be finally a 1% DMSO aqueous solution, and a substrate cocktail containing ATP (1mM or Km ATP (BTK: 10 uM /ITK: 25uM)) and 0.2 ug/ul of Poly (Glu4,Tyr1) peptide (BTK and ITK final concentration) in the total 25 uL reactants was added to a 96-well plate to initiate enzymatic reaction. After incubation (30°C) for 1 hour, equivalent volume (25 uL per reaction) of ADP Glo was added, and incubated (30°C) for 40 minutes at room temperature. Then, a kinase detection reagent (45 uL per reaction) was added, and incubated (30°C) for 30 minutes at room temperature. The kinase activity was measured by chemiluminescence according to the instructions of ADP Glo kinase assay kit, and the inhibitory activity of the compounds according to the present disclosure was calculated. For the analysis of the results of each compound, Microsoft Excel was used, and IC50 values were calculated by GraphPad Prism software.

ITK = molecular target: T2, ITK (Homo sapiens, UniProt Q08881); test: Inhibitory activity against ITK, ADP-Glo Kinase system (Promega); format: biochemical
T2 construct: purchased Signalchem I13-11G-10
T2 sequence (Q08881 1-620): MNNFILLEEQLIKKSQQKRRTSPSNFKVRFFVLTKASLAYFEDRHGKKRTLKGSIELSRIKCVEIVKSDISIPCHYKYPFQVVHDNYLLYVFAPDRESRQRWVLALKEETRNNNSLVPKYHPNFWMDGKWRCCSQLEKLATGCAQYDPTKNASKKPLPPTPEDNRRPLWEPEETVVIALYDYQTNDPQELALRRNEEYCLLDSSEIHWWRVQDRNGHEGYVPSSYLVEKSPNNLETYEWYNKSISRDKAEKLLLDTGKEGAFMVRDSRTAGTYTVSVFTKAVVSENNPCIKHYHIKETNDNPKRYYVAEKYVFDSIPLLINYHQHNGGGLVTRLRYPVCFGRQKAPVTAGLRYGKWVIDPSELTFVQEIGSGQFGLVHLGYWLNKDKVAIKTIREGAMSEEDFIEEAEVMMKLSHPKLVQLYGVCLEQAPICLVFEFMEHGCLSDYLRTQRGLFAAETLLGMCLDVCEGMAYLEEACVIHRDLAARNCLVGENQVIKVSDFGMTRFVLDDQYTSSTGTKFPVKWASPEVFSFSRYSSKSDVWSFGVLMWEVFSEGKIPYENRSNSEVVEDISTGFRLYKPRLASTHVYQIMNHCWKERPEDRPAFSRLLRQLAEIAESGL
Protocol: as §1, §2, §3

[1] = Km ATP (BTK: 10 uM), read-out: BTK IC50(nM) Km ATP
[2] = Km ATP (ITK: 25uM), read-out: ITK IC50(nM) Km ATP
[3] = 1mM ATP, read-out: BTK IC50(nM) 1mM ATP
[4] = 1mM ATP, read-out: ITK IC50(nM) 1mM ATP

| SMILES | IC50 (BTK; [1]) | IC50 (ITK; [2]) | IC50 (BTK; [3]) | IC50 (ITK; [4]) |
| --- | --- | --- | --- | --- |
| C=CC(=O)Nc1cc(-c2nc(Nc3ncc(C)s3)cc3c2ccn3C)ccc1F [Example 54, N-(2-fluoro-5-(1-methyl-6-((5-methylthiazol-2-yl)amino)-1H-pyrrolo[3,2-c]pyridin-4-yl)phenyl)acrylamide] | ≤ 20 nM | 20 to 100 nM |  |  |
| C=CC(=O)N1C2C=C(c3nc(Nc4ncc(C)s4)cc4c3ccn4C)CC1CCC2 (stereo not drawn) [Example 36, 1-(3-(1-methyl-6-((5-methylthiazol-2-yl)amino)-1H-pyrrolo[3,2-c]pyridin-4-yl)-9-azabicyclo[3.3.1]non-2-en-9-yl)prop-2-en-1-one] |  |  | ≤ 20 nM | ≤ 20 nM |
| C=CC(=O)Nc1cc(-c2nc(Nc3ncc(C)s3)cc3c2ccn3CC(F)F)ccc1F [Example 76, N-(5-(1-(2,2-difluoroethyl)-6-((5-methylthiazol-2-yl)amino)-1H-pyrrolo[3,2-c]pyridin-4-yl)-2-fluorophenyl)acrylamide] | ≤ 20 nM | 20 to 100 nM |  |  |
| C=CC(=O)N1C[C@@H](C)[C@H](Oc2nc(Nc3ncc(C)s3)cc3c2ccn3C(C)C)C1 (racemic) [Example 92, rac-1-((3S,4R)-3-((1-isopropyl-6-((5-methylthiazol-2-yl)amino)-1H-pyrrolo[3,2-c]pyridin-4-yl)oxy)-4-methylpyrrolidin-1-yl)prop-2-en-1-one] |  |  | ≤ 20 nM | ≤ 20 nM |
| C=CC(=O)N1CCC12CC(Oc1nc(Nc3ncc(C)s3)cc3c1ccn3CC(C)C)C2 (stereo not drawn) [Example 137, 1-(6-((1-isobutyl-6-((5-methylthiazol-2-yl)amino)-1H-pyrrolo[3,2-c]pyridin-4-yl)oxy)-1-azaspiro[3.3]heptan-1-yl)prop-2-en-1-one] |  |  | ≤ 20 nM | ≤ 20 nM |
| C=CC(=O)N1C[C@H](F)[C@H](Oc2nc(Nc3ncc(C)s3)cc3c2ccn3CC(C)(C)O)C1 [Example 141, 1-((3S,4R)-3-fluoro-4-((1-(2-hydroxy-2-methylpropyl)-6-((5-methylthiazol-2-yl)amino)-1H-pyrrolo[3,2-c]pyridin-4-yl)oxy)pyrrolidin-1-yl)prop-2-en-1-one] |  |  | ≤ 20 nM | ≤ 20 nM |
| C=CC(=O)N1CC(Oc2nc(Nc3ncc(C)s3)cc3c2ccn3CC(C)C)C1 [Example 118, 1-(3-((1-isobutyl-6-((5-methylthiazol-2-yl)amino)-1H-pyrrolo[3,2-c]pyridin-4-yl)oxy)azetidin-1-yl)prop-2-en-1-one] | 20 to 100 nM | 20 to 100 nM |  |  |
| CC#CC(=O)N1C[C@H](F)[C@H](Oc2nc(Nc3ncc(C)s3)cc3c2ccn3CC(C)C)C1 [Example 230, 1-((3S,4R)-3-fluoro-4-((1-isobutyl-6-((5-methylthiazol-2-yl)amino)-1H-pyrrolo[3,2-c]pyridin-4-yl)oxy)pyrrolidin-1-yl)but-2-yn-1-one] |  |  | > 500 nM | > 500 nM |
| C=CC(=O)N1CC[C@H](Oc2nc(Nc3ncc(C)s3)cc3c2ccn3CC2CCCC2)C1 [Example 128, (S)-1-(3-((1-(cyclopentylmethyl)-6-((5-methylthiazol-2-yl)amino)-1H-pyrrolo[3,2-c]pyridin-4-yl)oxy)pyrrolidin-1-yl)prop-2-en-1-one] |  |  | ≤ 20 nM | ≤ 20 nM |
| C=CC(=O)N1C[C@H](F)[C@H](Oc2nc(Nc3ncc(C)s3)cc3c2ccn3CCC)C1 [Example 159, 1-((3S,4R)-3-fluoro-4-((6-((5-methylthiazol-2-yl)amino)-1-propyl-1H-pyrrolo[3,2-c]pyridin-4-yl)oxy)pyrrolidin-1-yl)prop-2-en-1-one] |  |  | ≤ 20 nM | ≤ 20 nM |
| C=CC(=O)N1CC(Oc2nc(Nc3ncc(C)s3)cc3c2ccn3C(C)C)C1 [Example 80, 1-(3-((1-isopropyl-6-((5-methylthiazol-2-yl)amino)-1H-pyrrolo[3,2-c]pyridin-4-yl)oxy)azetidin-1-yl)prop-2-en-1-one] | ≤ 20 nM | ≤ 20 nM | ≤ 20 nM | ≤ 20 nM |
